Measured values taken from PMC7338124, “Characterization of neuraminidase inhibitor-resistant influenza virus isolates from immunocompromised patients in the Republic of Korea” (Virology Journal, 2020).

Key:
[1] = tested on: 2018–2019 isolates A(H3N2) neuraminidase, Wild; assay type: biochemical, influenza A(H3N2) virus
[2] = tested on: 2018–2019 isolates A(H1N1)pdm09 neuraminidase, Wild; assay type: biochemical, influenza A(H1N1)pdm09 virus
[3] = tested on: 2018–2019 isolates B neuraminidase, Wild; assay type: biochemical, influenza B virus
[4] = tested on: A/Korea/S0003/2019 A(H1N1)pdm09 neuraminidase, Variant (H275Y); assay type: biochemical, influenza A(H1N1)pdm09 virus
[5] = tested on: A/Korea/S0002/2019 A(H1N1)pdm09 neuraminidase, Variant (H275Y); assay type: biochemical, influenza A(H1N1)pdm09 virus

Structure (SMILES)	NAI resistance (IC50 fold change) [1]	NAI resistance (IC50 fold change) [2]	NAI resistance (IC50 fold change) [3]	NAI resistance (IC50 fold change) [4]	Susceptibility to NAI (in words) [4]	NAI resistance (IC50 fold change) [5]	Susceptibility to NAI (in words) [5]
CCOC(=O)C1=C[C@@H](OC(CC)CC)[C@H](NC(C)=O)[C@@H](N)C1 [Oseltamivir]	0.1–0.2 fold	0.1–1.2 fold					
CCC(CC)[C@H](NC(C)=O)[C@@H]1[C@H](O)[C@@H](C(=O)O)C[C@H]1N=C(N)N [Peramivir]	0.2–0.3 fold	0.1 fold	0.3–0.4 fold				
CC(=O)N[C@H]1[C@H]([C@H](O)[C@H](O)CO)OC(C(=O)O)=C[C@@H]1N=C(N)N [Zanamivir]	0.4–0.8 fold	0.3–0.7 fold	0.7–1.6 fold	NI 2.56 fold	normally susceptible	NI 0.44 fold	normally susceptible
